Where two headings read alike, the source gives them in different places. Residues, ends and D or L forms follow the SMILES beside them. No end group written: not given here.
What was measured:
MDRAB (329-53) = conditions: for FICI: fractional inhibitory concentration index, FICA + FICB / Interpretation of FICI: antibiotic in combination with hirunipin 2; for MICA: MIC of antibiotic alone: checkerboard, MDRAB, 1×10^6 CFU/mL; for FICA: fractional inhibitory concentration of antibiotic ([A] / MICA) / [A]: MIC of antibiotic in combination: in combination with hirunipin 2
Protocol: Synergy testing by checkerboard assay: Briefly, each 96-well microtiter plate was inoculated with two-fold serial dilutions of two antibiotics, ranging from 1/8 MIC to 2 MIC, such that one antibiotic was inoculated in the columns and the other in the rows. Then, MDRAB (329-53) cells were inoculated at a concentration of 1× 10^6 CFU/mL. The plates were incubated overnight under static conditions and observed visually.

[1] = test system: Pseudomonas aeruginosa [KCTC 1637]; type: cell-based
Protocol: (§1) The MICs of the peptides were measured by the Clinical and Laboratory Standards Institute (CLSI) broth microdilution method, as outlined in a previous study.^[ [26], [27] ^]
(§2) Minimal Inhibitory Concentrations (MICs): Bacteria were grown to mid-logarithmic phase and diluted in Mueller-Hinton broth (MHB) (Difco). The bacterial suspension (1×10^6 CFU/well) was added to a 96-well microtiter plate along with a two-fold serial dilution of samples. The plate was incubated at 37 °C for 24 hours and the bacterial growth inhibition was assessed by measuring the optical density using an ELISA plate reader. The minimum inhibitory concentration (MIC) was defined as the lowest concentration of samples that prevented visible bacterial growth.

[2] = test system: Staphylococcus epidermidis [KCTC 1917]; type: cell-based
Protocol: as §1, §2

[3] = test system: Staphylococcus aureus [KCTC1621]; type: cell-based
Protocol: as §1, §2

[4] = test system: Escherichia coli [KCTC 1682]; type: cell-based
Protocol: as §1, §2

[5] = CLSI broth microdilution in MHB, 1×10^6 CFU/well, 37 °C, 24 h, optical density

Compound: O=C(N[C@H](CO)[C@H](O)c1ccc([N+](=O)[O-])cc1)C(Cl)Cl [CHL, Chloramphenicol]
- FICI: fractional inhibitory concentration index, FICA + FICB (MDRAB (329-53)): 0.1875
- Interpretation of FICI (MDRAB (329-53)): synergy (FICI ≤ 0.5 was interpreted as synergy)
- MICA: MIC of antibiotic alone (MDRAB (329-53)): 1024 µg/mL
- FICA: fractional inhibitory concentration of antibiotic ([A] / MICA) (MDRAB (329-53)): 0.125
- [A]: MIC of antibiotic in combination (MDRAB (329-53)): 128 µg/mL

Compound: QKFNGKSYALAKKMKKRQVKFLNRILDQL [LP19]
- Minimum inhibitory concentration (MIC), Pseudomonas aeruginosa [KCTC 1637] ([1]; KCTC 1637, 24 h): >128 µg/mL
- Minimum inhibitory concentration (MIC), Staphylococcus epidermidis [KCTC 1917] ([2]; KCTC 1917, 24 h): >128 µg/mL
- Minimum inhibitory concentration (MIC), Staphylococcus aureus [KCTC1621] ([3]; KCTC1621, 24 h): >128 µg/mL
- Minimum inhibitory concentration (MIC), Escherichia coli [KCTC 1682] ([4]; KCTC 1682, 24 h): >128 µg/mL

Compound: CC[C@H](C)[C@H](NC(=O)[C@H](CO)NC(=O)[C@H](CCCNC(=N)N)NC(=O)[C@H](C)N)C(=O)N[C@@H](CCCCN)C(=O)N[C@@H](CCCCN)C(=O)N[C@H](C(=O)N[C@H](C(=O)N[C@@H](Cc1ccccc1)C(=O)N[C@@H](CO)C(=O)N[C@@H](CO)C(=O)N[C@@H](CO)C(=O)N[C@@H](CO)C(=O)N[C@@H](CCCNC(=N)N)C(=O)N[C@H](C(=O)N[C@@H](CS)C(=O)N1CCC[C@H]1C(=O)N1CCC[C@H]1C(=O)N[C@@H](CC(C)C)C(=O)N[C@@H](CCCCN)C(=O)N[C@@H](CCSC)C(=O)N[C@@H](CC(C)C)C(=O)N[C@@H](CCCCN)C(=O)N[C@@H](CC(C)C)C(=O)N[C@@H](CCCNC(=N)N)C(=O)N1CCC[C@H]1C(=O)N[C@@H](CS)C(=O)N[C@@H](Cc1ccccc1)C(=O)N[C@@H](CCCCN)C(=O)N[C@@H](CCCCN)C(=O)N[C@H](C(=O)N1CCC[C@H]1C(=O)N[C@@H](CCCCN)C(=O)N[C@@H](CC(C)C)C(=O)N[C@@H](CC(=O)O)C(=O)NCC(=O)N[C@@H](CCC(N)=O)C(=O)O)C(C)C)C(C)C)[C@@H](C)CC)C(C)C [LP15] (H-ARSIKKVIFSSSSRVCPPLKMLKLRPCFKKVPKLDGQ-OH; N-terminus and C-terminus assumed)
- Minimum inhibitory concentration (MIC), Pseudomonas aeruginosa [KCTC 1637] ([1]; KCTC 1637, 24 h): >128 µg/mL
- Minimum inhibitory concentration (MIC), Staphylococcus epidermidis [KCTC 1917] ([2]; KCTC 1917, 24 h): >128 µg/mL
- Minimum inhibitory concentration (MIC), Staphylococcus aureus [KCTC1621] ([3]; KCTC1621, 24 h): >128 µg/mL
- Minimum inhibitory concentration (MIC), Escherichia coli [KCTC 1682] ([4]; KCTC 1682, 24 h): >128 µg/mL

Compound: LLAHVSKGFKLSMQKSKKPSLPIKT-NH2 [LP5]
- Minimum inhibitory concentration (MIC), Pseudomonas aeruginosa [KCTC 1637] ([1]; KCTC 1637, 24 h): >128 µg/mL
- Minimum inhibitory concentration (MIC), Staphylococcus epidermidis [KCTC 1917] ([2]; KCTC 1917, 24 h): >128 µg/mL
- Minimum inhibitory concentration (MIC), Staphylococcus aureus [KCTC1621] ([3]; KCTC1621, 24 h): >128 µg/mL
- Minimum inhibitory concentration (MIC), Escherichia coli [KCTC 1682] ([4]; KCTC 1682, 24 h): >128 µg/mL

Compound: CO[C@H]1/C=C/O[C@@]2(C)Oc3c(C)c(O)c4c(O)c(c(/C=N/N5CCN(C)CC5)c(O)c4c3C2=O)NC(=O)/C(C)=C\C=C\[C@H](C)[C@H](O)[C@@H](C)[C@@H](O)[C@@H](C)[C@H](OC(C)=O)[C@@H]1C [RIF, Rifampicin]
- FICI: fractional inhibitory concentration index, FICA + FICB (MDRAB (329-53)): 0.3125
- Interpretation of FICI (MDRAB (329-53)): synergy (FICI ≤ 0.5 was interpreted as synergy)
- MICA: MIC of antibiotic alone (MDRAB (329-53)): 16 µg/mL
- FICA: fractional inhibitory concentration of antibiotic ([A] / MICA) (MDRAB (329-53)): 0.0625
- [A]: MIC of antibiotic in combination (MDRAB (329-53)): 1 µg/mL

Compound: KKLLKKLEKISKKKKKDKKRGRGSPMTSYAILYDGA [LP10]
- Minimum inhibitory concentration (MIC), Pseudomonas aeruginosa [KCTC 1637] ([1]; KCTC 1637, 24 h): >128 µg/mL
- Minimum inhibitory concentration (MIC), Staphylococcus epidermidis [KCTC 1917] ([2]; KCTC 1917, 24 h): >128 µg/mL
- Minimum inhibitory concentration (MIC), Staphylococcus aureus [KCTC1621] ([3]; KCTC1621, 24 h): >128 µg/mL
- Minimum inhibitory concentration (MIC), Escherichia coli [KCTC 1682] ([4]; KCTC 1682, 24 h): >128 µg/mL

Compound: PKKVRKSFKKLRNFSNKNSNIYGLPA [LP17]
- Minimum inhibitory concentration (MIC), Pseudomonas aeruginosa [KCTC 1637] ([1]; KCTC 1637, 24 h): >128 µg/mL
- Minimum inhibitory concentration (MIC), Staphylococcus epidermidis [KCTC 1917] ([2]; KCTC 1917, 24 h): >128 µg/mL
- Minimum inhibitory concentration (MIC), Staphylococcus aureus [KCTC1621] ([3]; KCTC1621, 24 h): >128 µg/mL
- Minimum inhibitory concentration (MIC), Escherichia coli [KCTC 1682] ([4]; KCTC 1682, 24 h): >128 µg/mL

Compound: IIIIKMHKTRKEKTQSILSAPVGLLTTL [LP7]
- Minimum inhibitory concentration (MIC), Pseudomonas aeruginosa [KCTC 1637] ([1]; KCTC 1637, 24 h): >128 µg/mL
- Minimum inhibitory concentration (MIC), Staphylococcus epidermidis [KCTC 1917] ([2]; KCTC 1917, 24 h): >128 µg/mL
- Minimum inhibitory concentration (MIC), Staphylococcus aureus [KCTC1621] ([3]; KCTC1621, 24 h): >128 µg/mL
- Minimum inhibitory concentration (MIC), Escherichia coli [KCTC 1682] ([4]; KCTC 1682, 24 h): >128 µg/mL

Compound: FGQKVNCILNFICYKYLRI LV [LP2, putative AMP predicted from the Hirudo nipponia transcriptome]
- Minimum inhibitory concentration (MIC), Pseudomonas aeruginosa [KCTC 1637] [1, 5]: >128 µg/mL
- Minimum inhibitory concentration (MIC), Staphylococcus epidermidis [KCTC 1917] [2, 5]: >128 µg/mL
- Minimum inhibitory concentration (MIC), Staphylococcus aureus [KCTC1621] [3, 5]: >128 µg/mL
- Minimum inhibitory concentration (MIC), Escherichia coli [KCTC 1682] [4, 5]: >128 µg/mL

Compound: VLNVQSIMSWNKRVGGMILNLKT [LP11]
- Minimum inhibitory concentration (MIC), Pseudomonas aeruginosa [KCTC 1637] ([1]; KCTC 1637, 24 h): >128 µg/mL
- Minimum inhibitory concentration (MIC), Staphylococcus epidermidis [KCTC 1917] ([2]; KCTC 1917, 24 h): >128 µg/mL
- Minimum inhibitory concentration (MIC), Staphylococcus aureus [KCTC1621] ([3]; KCTC1621, 24 h): >128 µg/mL
- Minimum inhibitory concentration (MIC), Escherichia coli [KCTC 1682] ([4]; KCTC 1682, 24 h): >128 µg/mL

Compound: CC(C)C[C@H](NC(=O)[C@H](CS)NC(=O)[C@@H](NC(=O)CNC(=O)[C@H](CC(=O)O)NC(=O)[C@H](CCC(=O)O)NC(=O)[C@H](CCCCN)NC(=O)[C@H](CCCCN)NC(=O)[C@H](CS)NC(=O)[C@@H](NC(=O)[C@H](CCCNC(=N)N)NC(=O)[C@H](CCCNC(=N)N)NC(=O)[C@@H](N)CCCNC(=N)N)[C@@H](C)O)[C@@H](C)O)C(=O)NCC(=O)N[C@@H](CCCNC(=N)N)C(=O)N[C@@H](CCCCN)C(=O)N[C@H](C(=O)N[C@@H](CCC(N)=O)C(=O)N[C@@H](Cc1ccc(O)cc1)C(=O)N[C@@H](CCCCN)C(=O)N[C@@H](CCCCN)C(=O)N[C@@H](Cc1ccc(O)cc1)C(=O)N[C@@H](CC(C)C)C(=O)N[C@@H](CCC(N)=O)C(=O)N[C@@H](CCCCN)C(=O)N[C@@H](CCCCN)C(N)=O)C(C)C [LP3] (H-RRRTCKKEDGTCLGRKVQYKKYLQKK-NH2; N-terminus and C-terminus assumed)
- Minimum inhibitory concentration (MIC), Pseudomonas aeruginosa [KCTC 1637] ([1]; KCTC 1637, 24 h): >128 µg/mL
- Minimum inhibitory concentration (MIC), Staphylococcus epidermidis [KCTC 1917] ([2]; KCTC 1917, 24 h): >128 µg/mL
- Minimum inhibitory concentration (MIC), Staphylococcus aureus [KCTC1621] ([3]; KCTC1621, 24 h): >128 µg/mL
- Minimum inhibitory concentration (MIC), Escherichia coli [KCTC 1682] ([4]; KCTC 1682, 24 h): >128 µg/mL

Compound: LNTPRPELSISQRLLIKNFILII-NH2 [LP14]
- Minimum inhibitory concentration (MIC), Pseudomonas aeruginosa [KCTC 1637] ([1]; KCTC 1637, 24 h): >128 µg/mL
- Minimum inhibitory concentration (MIC), Staphylococcus epidermidis [KCTC 1917] ([2]; KCTC 1917, 24 h): >128 µg/mL
- Minimum inhibitory concentration (MIC), Staphylococcus aureus [KCTC1621] ([3]; KCTC1621, 24 h): >128 µg/mL
- Minimum inhibitory concentration (MIC), Escherichia coli [KCTC 1682] ([4]; KCTC 1682, 24 h): >128 µg/mL

Compound: MANPVNSIKRIIKKLKKERKCKPNL [LP18]
- Minimum inhibitory concentration (MIC), Pseudomonas aeruginosa [KCTC 1637] ([1]; KCTC 1637, 24 h): >128 µg/mL
- Minimum inhibitory concentration (MIC), Staphylococcus epidermidis [KCTC 1917] ([2]; KCTC 1917, 24 h): >128 µg/mL
- Minimum inhibitory concentration (MIC), Staphylococcus aureus [KCTC1621] ([3]; KCTC1621, 24 h): >128 µg/mL
- Minimum inhibitory concentration (MIC), Escherichia coli [KCTC 1682] ([4]; KCTC 1682, 24 h): >128 µg/mL

Compound: O=C(O)c1cn(C2CC2)c2cc(N3CCNCC3)c(F)cc2c1=O [CIP, Ciprofloxacin]
- Interpretation of FICI (MDRAB (329-53)): synergy (FICI ≤ 0.5 was interpreted as synergy)
- MICA: MIC of antibiotic alone (MDRAB (329-53)): 128 µg/mL
- FICA: fractional inhibitory concentration of antibiotic ([A] / MICA) (MDRAB (329-53)): 0.25
- [A]: MIC of antibiotic in combination (MDRAB (329-53)): 32 µg/mL
